pIC50: −log10 of the molar value.
Key:
[1] = molecular target: Small conductance calcium-activated potassium channel (Rattus norvegicus) (UniProt P70604+P70606+P70605); assay: Displacement of [125I]apamin from rat brain SkCa channel at 10 uM after 60 mins by scintillation counting analysis relative to control
[2] = molecular target: C-X-C chemokine receptor type 2 (Homo sapiens) (UniProt P25025); assay: Displacement of [125I]IL-8 from human recombinant CXCR2 receptor at 10 uM after 60 mins by scintillation counting analysis relative to control
[3] = molecular target: 5-hydroxytryptamine receptor 1A (Homo sapiens, UniProt P08908); assay: Displacement of [3H]8-OH-DPAT from recombinant human 5-HT1A receptor after 60 mins by scintillation counting analysis
[4] = molecular target: Neuropeptide Y receptor type 1 (Homo sapiens, UniProt P25929); assay: Displacement of [125I]peptide YY from human Y1 receptor after 120 mins by scintillation counting analysis
D(1A) dopamine receptor = D(1A) dopamine receptor (Homo sapiens, UniProt P21728); assay: Displacement of [3H]-SCH 23390 from human recombinant dopamine D1 receptor at 10 uM after 60 mins by scintillation counting analysis relative to control
Rattus norvegicus [5] = species: Rattus norvegicus; assay: Displacement of [3H]flunitrazepam from rat brain central BZD at 1 uM after 60 mins relative to control
Adenosine receptor A2a = Adenosine receptor A2a (Homo sapiens, UniProt P29274); assay: Displacement of [3H]-CGS 21680 from human recombinant adenosine A2A receptor at 1 uM after 120 mins by scintillation counting analysis relative to control
[6] = molecular target: Rho-associated protein kinase 1 (Homo sapiens) (UniProt Q13464); assay: Inhibition of recombinant N-terminal GST-tagged human ROCK1 catalytic domain (1 to 535 residues) expressed in baculovirus expression system at 10 uM in presence of ATP relative to control
[7] = molecular target: 5-hydroxytryptamine receptor 6 (Homo sapiens, UniProt P50406); assay: Displacement of [3H]LSD from human recombinant 5-HT6 receptor at 10 uM after 120 mins by scintillation counting analysis relative to control
[8] = molecular target: Sodium-dependent noradrenaline transporter (Homo sapiens, UniProt P23975); assay: Displacement of [3H]nisoxetine from recombinant human norepinephrine transporter at 10 uM after 120 mins by scintillation counting analysis relative to control
PXR (NR1I2) = molecular target: T1, PXR (NR1I2) (Homo sapiens, UniProt O75469); assay: […] at PXR LBD (unknown origin) expressed in HEK293 cells […] at 10 uM after 16 hrs by luciferase reporter gene assay relative to rifampicin; assay type: ADME, cell-based; details: HEK293 cells expressing PXR LBD, read-out: Efficacy
T1 sequence (O75469 whole entry): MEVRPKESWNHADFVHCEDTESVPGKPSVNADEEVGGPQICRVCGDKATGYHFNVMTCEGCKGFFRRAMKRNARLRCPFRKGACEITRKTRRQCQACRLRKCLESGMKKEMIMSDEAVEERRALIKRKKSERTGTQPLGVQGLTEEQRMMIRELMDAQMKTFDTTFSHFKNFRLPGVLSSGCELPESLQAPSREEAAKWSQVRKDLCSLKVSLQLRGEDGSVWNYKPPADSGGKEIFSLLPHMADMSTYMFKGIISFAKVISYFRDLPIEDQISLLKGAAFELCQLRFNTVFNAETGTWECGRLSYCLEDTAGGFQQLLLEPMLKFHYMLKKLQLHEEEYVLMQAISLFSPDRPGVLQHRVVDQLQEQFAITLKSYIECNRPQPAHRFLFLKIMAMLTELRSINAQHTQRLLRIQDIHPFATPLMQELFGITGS

[9] = molecular target: Mitogen-activated protein kinase 13 (Homo sapiens) (UniProt O15264); assay: Inhibition of recombinant full length His-tagged human p38delta expressed in baculovirus expression system at 10 uM in presence of ATP relative to control
[10] = molecular target: C-C chemokine receptor type 1 (Homo sapiens) (UniProt P32246); assay: Displacement of [125I]MIP-1alpha from human recombinant CCR1 receptor at 10 uM after 120 mins by scintillation counting analysis relative to control
[11] = Binding affinity to rat GABA receptor after 60 mins by agonist radioligand binding assay
Nociceptin receptor [12] = molecular target: T2, Nociceptin receptor (Homo sapiens, UniProt P41146); assay: Displacement of [3H]nociceptin from human recombinant NOP receptor after 60 mins by scintillation counting analysis
[13] = molecular target: Adenosine receptor A3 (Homo sapiens) (UniProt P0DMS8); assay: Displacement of [125I]AB-MECA from human recombinant adenosine A3 receptor at 1 uM after 120 mins by scintillation counting analysis relative to control
[14] = molecular target: Galanin receptor type 2 (Homo sapiens) (UniProt O43603); assay: Displacement of [125I]-endothelin-1 from human recombinant GAL2 receptor at 10 uM after 120 mins by scintillation counting analysis relative to control
[15] = molecular target: Serine/threonine-protein kinase pim-2 (Homo sapiens) (UniProt Q9P1W9); assay: Inhibition of recombinant full length GST-tagged human PIM2 expressed in baculovirus expression system at 10 uM in presence of ATP relative to control
[16] = molecular target: Delta-type opioid receptor (Homo sapiens, UniProt P41143); assay: Displacement of [3H]DADLE from human recombinant delta opioid receptor after 60 mins by scintillation counting analysis
[17] = molecular target: T3, Adrenergic receptor alpha-1 (Rattus norvegicus) (UniProt P15823+P23944+P43140); assay: Displacement of [3H]-prazosin from rat alpha1 adrenoceptor at 1 uM after 60 mins by scintillation counting analysis relative to control; assay type: protein assay
Cytochrome P450 2D6 = Cytochrome P450 2D6 (Homo sapiens, UniProt P10635); assay: Inhibition of CYP2D6 (unknown origin); assay type: ADME
Nociceptin receptor [18] = molecular target: T2, Nociceptin receptor; assay: Displacement of [3H]nociceptin from human recombinant NOP receptor at 10 uM after 60 mins by scintillation counting analysis relative to control
[19] = molecular target: Substance-K receptor (Homo sapiens) (UniProt P21452); assay: Displacement of [125I]NKA from human recombinant NK2 receptor at 10 uM after 60 mins by scintillation counting analysis relative to control
[20] = molecular target: Epidermal growth factor receptor (Homo sapiens) (UniProt P00533); assay: Inhibition of recombinant GST-tagged human EGFR (668 to 1210 residues) expressed in baculovirus expression system at 10 uM in presence of ATP relative to control
[21] = molecular target: T3, Adrenergic receptor alpha-1 (Rattus norvegicus); assay: Displacement of [3H]-prazosin from rat alpha1 adrenoceptor at 10 uM after 60 mins by scintillation counting analysis relative to control; assay type: protein assay
[22] = molecular target: Neuropeptide Y receptor type 2 (Homo sapiens) (UniProt P49146); assay: Displacement of [125I]peptide YY from human Y2 receptor at 10 uM after 120 mins by scintillation counting analysis relative to control
[23] = molecular target: 5-hydroxytryptamine receptor 3A (Homo sapiens) (UniProt P46098); assay: Displacement of [3H]BRL 43694 from human recombinant 5-HT3 receptor at 1 uM after 120 mins by scintillation counting analysis relative to control
Rattus norvegicus [24] = species: Rattus norvegicus; assay: Displacement of [3H]batrachotoxinin from rat brain voltage gated sodium ion channel site 2 at 10 uM after 60 mins by scintillation counting analysis relative to control

T2 sequence (P41146 whole entry): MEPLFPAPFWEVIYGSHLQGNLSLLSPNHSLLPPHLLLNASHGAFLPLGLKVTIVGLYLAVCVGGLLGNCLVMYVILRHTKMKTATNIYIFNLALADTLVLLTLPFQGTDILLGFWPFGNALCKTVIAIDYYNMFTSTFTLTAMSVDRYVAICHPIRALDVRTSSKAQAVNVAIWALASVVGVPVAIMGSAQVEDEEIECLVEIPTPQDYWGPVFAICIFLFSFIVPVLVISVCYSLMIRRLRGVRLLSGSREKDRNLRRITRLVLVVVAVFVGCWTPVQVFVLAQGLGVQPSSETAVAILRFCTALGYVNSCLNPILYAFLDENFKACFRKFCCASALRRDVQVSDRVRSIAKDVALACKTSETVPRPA
Chain of Neuropeptide Y receptor type 2 (Homo sapiens) (P49146 whole entry): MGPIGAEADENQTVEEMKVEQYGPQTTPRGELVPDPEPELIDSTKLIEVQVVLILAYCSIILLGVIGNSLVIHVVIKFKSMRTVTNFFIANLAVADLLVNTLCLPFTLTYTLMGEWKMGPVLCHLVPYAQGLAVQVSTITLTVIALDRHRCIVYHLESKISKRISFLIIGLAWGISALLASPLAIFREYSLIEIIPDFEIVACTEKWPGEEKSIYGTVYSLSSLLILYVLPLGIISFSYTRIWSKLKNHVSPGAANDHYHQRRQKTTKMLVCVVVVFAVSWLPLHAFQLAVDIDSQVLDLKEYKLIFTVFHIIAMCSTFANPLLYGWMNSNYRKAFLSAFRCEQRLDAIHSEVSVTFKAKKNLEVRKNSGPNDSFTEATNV
Chain of Substance-K receptor (Homo sapiens) (P21452 whole entry, the tested form may be a part): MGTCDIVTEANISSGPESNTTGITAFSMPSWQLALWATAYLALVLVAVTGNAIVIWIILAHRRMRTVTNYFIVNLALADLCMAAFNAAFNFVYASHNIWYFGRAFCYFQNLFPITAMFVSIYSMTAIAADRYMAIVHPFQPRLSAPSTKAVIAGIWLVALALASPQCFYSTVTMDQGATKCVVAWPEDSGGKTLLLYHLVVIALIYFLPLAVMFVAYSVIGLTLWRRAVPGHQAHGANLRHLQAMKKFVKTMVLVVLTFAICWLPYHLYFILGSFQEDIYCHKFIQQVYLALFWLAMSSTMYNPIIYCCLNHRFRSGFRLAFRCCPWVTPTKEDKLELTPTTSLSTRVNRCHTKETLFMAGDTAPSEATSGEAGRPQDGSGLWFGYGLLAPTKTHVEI
Chain of Rho-associated protein kinase 1 (Homo sapiens) (Q13464 2-1354 limits assumed): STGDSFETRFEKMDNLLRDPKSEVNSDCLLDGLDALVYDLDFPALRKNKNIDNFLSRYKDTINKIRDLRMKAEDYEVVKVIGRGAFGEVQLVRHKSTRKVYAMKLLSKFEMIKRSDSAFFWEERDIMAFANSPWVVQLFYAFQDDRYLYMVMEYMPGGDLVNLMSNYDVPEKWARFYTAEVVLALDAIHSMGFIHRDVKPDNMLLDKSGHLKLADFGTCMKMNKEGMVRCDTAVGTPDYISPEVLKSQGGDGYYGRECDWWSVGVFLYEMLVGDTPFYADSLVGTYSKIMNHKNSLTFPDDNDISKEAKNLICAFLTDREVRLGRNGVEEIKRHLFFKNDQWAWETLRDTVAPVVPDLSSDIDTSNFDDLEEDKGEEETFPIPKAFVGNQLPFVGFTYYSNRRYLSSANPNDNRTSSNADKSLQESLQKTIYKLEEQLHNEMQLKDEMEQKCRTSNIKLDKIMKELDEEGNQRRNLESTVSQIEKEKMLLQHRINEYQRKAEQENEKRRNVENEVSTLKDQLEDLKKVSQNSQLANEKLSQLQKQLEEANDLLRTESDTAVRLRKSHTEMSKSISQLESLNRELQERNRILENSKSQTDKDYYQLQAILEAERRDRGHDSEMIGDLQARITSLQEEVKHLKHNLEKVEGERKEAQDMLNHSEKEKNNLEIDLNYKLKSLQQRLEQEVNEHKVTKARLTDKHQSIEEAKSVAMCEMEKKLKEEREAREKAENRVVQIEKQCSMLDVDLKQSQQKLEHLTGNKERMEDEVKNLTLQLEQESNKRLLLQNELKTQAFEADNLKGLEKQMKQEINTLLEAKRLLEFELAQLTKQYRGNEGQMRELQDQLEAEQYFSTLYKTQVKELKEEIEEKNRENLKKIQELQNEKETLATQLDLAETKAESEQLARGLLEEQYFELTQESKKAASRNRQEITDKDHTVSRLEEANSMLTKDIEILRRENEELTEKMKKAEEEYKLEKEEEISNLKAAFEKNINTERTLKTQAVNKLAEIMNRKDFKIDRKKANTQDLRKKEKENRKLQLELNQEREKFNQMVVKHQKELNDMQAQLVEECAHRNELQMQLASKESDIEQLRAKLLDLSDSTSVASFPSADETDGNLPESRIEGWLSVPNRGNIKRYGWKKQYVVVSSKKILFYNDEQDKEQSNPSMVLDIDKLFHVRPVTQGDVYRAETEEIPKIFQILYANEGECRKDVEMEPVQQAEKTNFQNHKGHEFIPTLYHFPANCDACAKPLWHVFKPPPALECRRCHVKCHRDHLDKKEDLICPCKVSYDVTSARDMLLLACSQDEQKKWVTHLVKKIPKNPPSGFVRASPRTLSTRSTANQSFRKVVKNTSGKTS
Chain of Mitogen-activated protein kinase 13 (Homo sapiens) (O15264 whole entry): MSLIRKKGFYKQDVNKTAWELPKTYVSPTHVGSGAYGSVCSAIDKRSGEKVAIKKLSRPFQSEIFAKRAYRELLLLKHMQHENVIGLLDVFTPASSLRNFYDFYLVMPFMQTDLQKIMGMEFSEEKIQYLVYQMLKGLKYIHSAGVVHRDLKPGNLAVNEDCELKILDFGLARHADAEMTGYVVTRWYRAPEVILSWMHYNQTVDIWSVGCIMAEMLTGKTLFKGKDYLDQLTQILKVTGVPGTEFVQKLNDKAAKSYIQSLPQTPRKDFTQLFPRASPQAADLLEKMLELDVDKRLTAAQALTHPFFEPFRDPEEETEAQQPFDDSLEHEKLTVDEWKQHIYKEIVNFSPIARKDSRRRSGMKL
Chain of D(1A) dopamine receptor (P21728 whole entry): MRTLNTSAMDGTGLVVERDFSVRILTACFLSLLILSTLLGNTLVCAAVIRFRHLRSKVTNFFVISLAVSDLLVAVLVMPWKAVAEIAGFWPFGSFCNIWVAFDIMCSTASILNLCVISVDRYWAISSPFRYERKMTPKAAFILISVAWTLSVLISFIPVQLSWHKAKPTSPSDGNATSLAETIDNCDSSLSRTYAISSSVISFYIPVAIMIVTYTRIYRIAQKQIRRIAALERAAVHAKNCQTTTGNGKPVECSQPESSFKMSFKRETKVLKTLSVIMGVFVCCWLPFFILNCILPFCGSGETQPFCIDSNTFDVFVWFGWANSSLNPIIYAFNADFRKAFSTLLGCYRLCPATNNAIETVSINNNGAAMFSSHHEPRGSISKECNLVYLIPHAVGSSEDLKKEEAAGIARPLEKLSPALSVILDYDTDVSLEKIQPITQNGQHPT
Chain of Epidermal growth factor receptor (Homo sapiens) (P00533 whole entry, the tested form may be a part): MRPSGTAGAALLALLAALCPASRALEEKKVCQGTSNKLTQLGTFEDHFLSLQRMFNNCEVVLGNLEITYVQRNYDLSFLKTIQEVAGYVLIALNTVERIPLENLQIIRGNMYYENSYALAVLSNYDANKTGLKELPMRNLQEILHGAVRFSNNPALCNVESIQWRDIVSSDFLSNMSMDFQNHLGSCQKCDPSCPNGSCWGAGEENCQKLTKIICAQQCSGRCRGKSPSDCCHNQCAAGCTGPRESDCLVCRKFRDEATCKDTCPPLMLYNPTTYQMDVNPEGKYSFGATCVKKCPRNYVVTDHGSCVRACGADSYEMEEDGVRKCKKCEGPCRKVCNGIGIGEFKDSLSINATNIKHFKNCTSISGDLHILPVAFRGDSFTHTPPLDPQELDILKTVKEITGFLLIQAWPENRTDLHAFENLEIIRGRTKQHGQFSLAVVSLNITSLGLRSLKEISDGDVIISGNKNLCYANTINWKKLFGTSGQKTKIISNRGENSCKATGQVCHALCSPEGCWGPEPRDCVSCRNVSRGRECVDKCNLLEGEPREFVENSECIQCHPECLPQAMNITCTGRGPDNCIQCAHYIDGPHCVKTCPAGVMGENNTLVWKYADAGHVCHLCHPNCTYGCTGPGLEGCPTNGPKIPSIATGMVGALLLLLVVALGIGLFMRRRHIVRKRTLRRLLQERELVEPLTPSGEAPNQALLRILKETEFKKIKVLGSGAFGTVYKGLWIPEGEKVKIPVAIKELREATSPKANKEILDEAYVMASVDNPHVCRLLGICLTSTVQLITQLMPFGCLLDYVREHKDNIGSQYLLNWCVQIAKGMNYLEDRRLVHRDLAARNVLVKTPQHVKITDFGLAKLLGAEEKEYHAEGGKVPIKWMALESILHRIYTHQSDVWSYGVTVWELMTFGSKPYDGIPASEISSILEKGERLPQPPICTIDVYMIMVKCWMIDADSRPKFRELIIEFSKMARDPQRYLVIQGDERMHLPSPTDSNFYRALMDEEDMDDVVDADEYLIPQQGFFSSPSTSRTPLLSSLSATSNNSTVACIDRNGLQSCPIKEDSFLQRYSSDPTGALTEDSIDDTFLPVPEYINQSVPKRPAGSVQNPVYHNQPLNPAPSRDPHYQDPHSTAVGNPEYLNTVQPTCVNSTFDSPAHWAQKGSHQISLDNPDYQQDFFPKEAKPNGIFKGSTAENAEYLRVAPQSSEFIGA
Chain of 5-hydroxytryptamine receptor 6 (P50406 whole entry): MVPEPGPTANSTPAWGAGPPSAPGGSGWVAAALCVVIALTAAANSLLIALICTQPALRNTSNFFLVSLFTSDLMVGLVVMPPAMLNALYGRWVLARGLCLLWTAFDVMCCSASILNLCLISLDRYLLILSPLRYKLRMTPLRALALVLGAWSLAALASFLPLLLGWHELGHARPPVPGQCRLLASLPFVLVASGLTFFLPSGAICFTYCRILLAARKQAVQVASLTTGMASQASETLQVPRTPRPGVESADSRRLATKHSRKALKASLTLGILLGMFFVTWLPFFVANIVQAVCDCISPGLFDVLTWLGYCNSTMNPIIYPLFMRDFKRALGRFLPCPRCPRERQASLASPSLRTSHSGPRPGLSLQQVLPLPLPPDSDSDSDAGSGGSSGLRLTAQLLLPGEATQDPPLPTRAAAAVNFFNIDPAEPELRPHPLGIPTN

With `CC(C)(C)NS(=O)(=O)c1ccc(-c2sc(C(=O)N[C@H]3C[C@H](C(=O)O)C3)nc2CC2CCCCC2)c2ccccc12` the inhibition [1] was < 10%, the inhibition [2] was 24% and the pIC50 [3] was 9.37. For the same compound, the pIC50 [4] was 9.89, the inhibition (D(1A) dopamine receptor) was 12% and the inhibition (Rattus norvegicus [5]) was < 10%. For the same compound, the inhibition (Adenosine receptor A2a) was 21%, the inhibition [6] was -10% and the inhibition [7] was 33%. It also gave an inhibition [8] of 27%, an Emax at 16 h, 10 µM (PXR (NR1I2)) of 195% and an inhibition [9] of -4%. For the same compound, the inhibition [10] was < 10%, the pIC50 [11] was 6.94 and the pIC50 (Nociceptin receptor [12]) was 9.01. For the same compound, the inhibition [13] was 24%, the inhibition [14] was < 10% and the inhibition [15] was 4%. The pIC50 [16] was 8.22, the inhibition [17] was < 10% and the INH (Cytochrome P450 2D6) was > 10 µM. The inhibition (Nociceptin receptor [18]) was < 10%, the inhibition [19] was < 10% and the inhibition [20] was -3%. For the same compound, the inhibition [21] was < 10%, the inhibition [22] was < 10% and the inhibition [23] was < 10%. For the same compound, the inhibition (Rattus norvegicus [24]) was 11%.

Source: ChEMBL document CHEMBL4118122, “Identification and biological evaluation of thiazole-based inverse agonists of RORγt” (Bioorg Med Chem Lett, 2018)
